Reference: ChEMBL document CHEMBL4316596, “Antimicrobial Peptides with High Proteolytic Resistance for Combating Gram-Negative Bacteria” (J Med Chem, 2019)

Assays:
Pseudomonas aeruginosa [1] = assay: Antimicrobial activity against Pseudomonas aeruginosa CICC 21625 clinical isolates after 24 hrs by NCCLS-protocol based assay; format: functional; settings: CICC 21625, 24 h
Acinetobacter baumannii [2] = assay: Antimicrobial activity against Acinetobacter baumannii after 24 hrs by NCCLS-protocol based assay; format: functional
Pseudomonas aeruginosa [3] = assay: Antimicrobial activity against Pseudomonas aeruginosa 25349 clinical isolates after 24 hrs by NCCLS-protocol based assay; format: functional; settings: Pseudomonas aeruginosa, 25349, 24 h
Pseudomonas aeruginosa [4] = assay: Bactericidal activity against Pseudomonas aeruginosa CICC 21625 clinical isolates incubated for 4 hrs followed by culture spread on agar plates and cultured overnight; format: functional; settings: CICC 21625, 4 h, read-out: MBC>99.9
Pseudomonas aeruginosa [5] = assay: Bactericidal activity against Pseudomonas aeruginosa 26305 clinical isolates incubated for 4 hrs followed by culture spread on agar plates and cultured overnight; format: functional; settings: Pseudomonas aeruginosa, 26305, 4 h; read-out: MBC>99.9
Salmonella typhimurium [6] = assay: Bactericidal activity against Salmonella typhimurium C7731 incubated for 4 hrs followed by culture spread on agar plates and cultured overnight; format: functional, Salmonella enterica subsp. enterica serovar Typhimurium; settings: Salmonella enterica, C7731, 4 h; read-out: MBC>99.9
Escherichia coli [7] = assay: Antimicrobial activity against Escherichia coli 078 after 24 hrs by NCCLS-protocol based assay; format: functional; settings: Escherichia coli, 078, 24 h
Escherichia coli [8] = assay: Bactericidal activity against Escherichia coli 078 incubated for 4 hrs followed by culture spread on agar plates and cultured overnight; format: functional; settings: Escherichia coli, 078, 4 h; read-out: MBC>99.9
Escherichia coli [9] = assay: Antimicrobial activity against Escherichia coli ATCC 25922 after 24 hrs by NCCLS-protocol based assay; format: functional; settings: ATCC 25922, 24 h
Salmonella typhimurium [10] = assay: Antimicrobial activity against Salmonella typhimurium ATCC 14028 after 24 hrs by NCCLS-protocol based assay; format: functional, Salmonella enterica subsp. enterica serovar Typhimurium; settings: Salmonella enterica, ATCC 14028, 24 h
Escherichia coli [11] = assay: Bactericidal activity against Escherichia coli K88 incubated for 4 hrs followed by culture spread on agar plates and cultured overnight; format: functional; settings: K88, 4 h, read-out: MBC>99.9
Escherichia coli [12] = assay: Bactericidal activity against Escherichia coli ATCC 25922 incubated for 4 hrs followed by culture spread on agar plates and cultured overnight; format: functional; settings: ATCC 25922, 4 h, read-out: MBC>99.9
Escherichia coli [13] = assay: Bactericidal activity against Escherichia coli UB1005 incubated for 4 hrs followed by culture spread on agar plates and cultured overnight; format: functional; settings: UB1005, 4 h, read-out: MBC>99.9
[14] = Bactericidal activity against Salmonella pullorum C7913 incubated for 4 hrs followed by culture spread on agar plates and cultured overnight; format: functional, Salmonella enterica subsp. enterica serovar Pullorum; settings: Salmonella enterica, C7913, 4 h; read-out: MBC>99.9
Acinetobacter baumannii [15] = assay: Bactericidal activity against Acinetobacter baumannii incubated for 4 hrs followed by culture spread on agar plates and cultured overnight; format: functional; settings: read-out: MBC>99.9
Pseudomonas aeruginosa [16] = assay: Antimicrobial activity against Pseudomonas aeruginosa PAO1 after 24 hrs by NCCLS-protocol based assay; format: functional; settings: PAO1, 24 h
Pseudomonas aeruginosa [17] = assay: Bactericidal activity against Pseudomonas aeruginosa ATCC 27853 incubated for 4 hrs followed by culture spread on agar plates and cultured overnight; format: functional; settings: ATCC 27853, 4 h, read-out: MBC>99.9
Escherichia coli [18] = assay: Antimicrobial activity against Escherichia coli UB1005 after 24 hrs by NCCLS-protocol based assay; format: functional; settings: UB1005, 24 h
Pseudomonas aeruginosa [19] = assay: Bactericidal activity against Pseudomonas aeruginosa PAO1 incubated for 4 hrs followed by culture spread on agar plates and cultured overnight; format: functional; settings: PAO1, 4 h, read-out: MBC>99.9
[20] = Antimicrobial activity against Salmonella pullorum C7913 after 24 hrs by NCCLS-protocol based assay; format: functional, Salmonella enterica subsp. enterica serovar Pullorum; settings: Salmonella enterica, C7913, 24 h
Escherichia coli [21] = assay: Bactericidal activity against Escherichia coli K99 incubated for 4 hrs followed by culture spread on agar plates and cultured overnight; format: functional; settings: K99, 4 h, read-out: MBC>99.9
Klebsiella pneumoniae [22] = assay: Bactericidal activity against Klebsiella pneumoniae incubated for 4 hrs followed by culture spread on agar plates and cultured overnight; format: functional; settings: read-out: MBC>99.9
Pseudomonas aeruginosa [23] = assay: Bactericidal activity against Pseudomonas aeruginosa 25349 clinical isolates incubated for 4 hrs followed by culture spread on agar plates and cultured overnight; format: functional; settings: Pseudomonas aeruginosa, 25349, 4 h; read-out: MBC>99.9
Escherichia coli [24] = assay: Antimicrobial activity against Escherichia coli K88 after 24 hrs by NCCLS-protocol based assay; format: functional; settings: K88, 24 h
Salmonella typhimurium [25] = assay: Antimicrobial activity against Salmonella typhimurium C7731 after 24 hrs by NCCLS-protocol based assay; format: functional, Salmonella enterica subsp. enterica serovar Typhimurium; settings: Salmonella enterica, C7731, 24 h
Escherichia coli [26] = assay: Antimicrobial activity against Escherichia coli K99 after 24 hrs by NCCLS-protocol based assay; format: functional; settings: K99, 24 h
Pseudomonas aeruginosa [27] = assay: Antimicrobial activity against Pseudomonas aeruginosa CICC 21630 clinical isolates after 24 hrs by NCCLS-protocol based assay; format: functional; settings: CICC 21630, 24 h
Pseudomonas aeruginosa [28] = assay: Antimicrobial activity against Pseudomonas aeruginosa ATCC 27853 after 24 hrs by NCCLS-protocol based assay; format: functional; settings: ATCC 27853, 24 h
Salmonella typhimurium [29] = assay: Bactericidal activity against Salmonella typhimurium ATCC 14028 incubated for 4 hrs followed by culture spread on agar plates and cultured overnight; format: functional, Salmonella enterica subsp. enterica serovar Typhimurium; settings: Salmonella enterica, ATCC 14028, 4 h; read-out: MBC>99.9
Pseudomonas aeruginosa [30] = assay: Bactericidal activity against Pseudomonas aeruginosa CICC 21630 clinical isolates incubated for 4 hrs followed by culture spread on agar plates and cultured overnight; format: functional; settings: CICC 21630, 4 h, read-out: MBC>99.9
Pseudomonas aeruginosa [31] = assay: Antimicrobial activity against Pseudomonas aeruginosa 26305 clinical isolates after 24 hrs by NCCLS-protocol based assay; format: functional; settings: Pseudomonas aeruginosa, 26305, 24 h
Klebsiella pneumoniae [32] = assay: Antimicrobial activity against Klebsiella pneumoniae after 24 hrs by NCCLS-protocol based assay; format: functional

| Substance | MIC95 (Pseudomonas aeruginosa [1]) | MIC95 (Acinetobacter baumannii [2]) | MIC95 (Pseudomonas aeruginosa [3]) | MBC (Pseudomonas aeruginosa [4]) | MBC (Pseudomonas aeruginosa [5]) | MBC (Salmonella typhimurium [6]) | MIC95 (Escherichia coli [7]) | MBC (Escherichia coli [8]) | MIC95 (Escherichia coli [9]) | MIC95 (Salmonella typhimurium [10]) | MBC (Escherichia coli [11]) | MBC (Escherichia coli [12]) | MBC (Escherichia coli [13]) | MBC [14] | MBC (Acinetobacter baumannii [15]) | MIC95 (Pseudomonas aeruginosa [16]) | MBC (Pseudomonas aeruginosa [17]) | MIC95 (Escherichia coli [18]) | MBC (Pseudomonas aeruginosa [19]) | MIC95 [20] | also measured |
| --- | --- | --- | --- | --- | --- | --- | --- | --- | --- | --- | --- | --- | --- | --- | --- | --- | --- | --- | --- | --- | --- |
| H-LRPLLRPLLRPLLRPL-NH2 | 64 µM | 2 µM | > 64 µM | > 64 µM | > 64 µM | 64 µM | 16 µM | 16 µM | 8 µM | 32 µM | 8 µM | 8 µM | 32 µM | 16 µM | 8 µM | > 64 µM | > 64 µM | 32 µM | > 64 µM | 8 µM | MBC (Escherichia coli [21]): 32 µM; MBC (Klebsiella pneumoniae [22]): > 64 µM; MBC (Pseudomonas aeruginosa [23]): > 64 µM; MIC95 (Escherichia coli [24]): 8 µM; MIC95 (Salmonella typhimurium [25]): 64 µM; MIC95 (Escherichia coli [26]): 32 µM; MIC95 (Pseudomonas aeruginosa [27]): > 64 µM; MIC95 (Pseudomonas aeruginosa [28]): > 64 µM; MBC (Salmonella typhimurium [29]): 64 µM; MBC (Pseudomonas aeruginosa [30]): > 64 µM; MIC95 (Pseudomonas aeruginosa [31]): > 64 µM; MIC95 (Klebsiella pneumoniae [32]): > 64 µM |
| H-VRPVVRPVVRPVVRPVVRPVVRPVVRPV-NH2 | > 64 µM | 4 µM | > 64 µM | > 64 µM | > 64 µM | 32 µM | 8 µM | 16 µM | 8 µM | 8 µM | 32 µM | 16 µM | 8 µM | 8 µM | 4 µM | > 64 µM | > 64 µM | 8 µM | > 64 µM | 4 µM | MBC (Escherichia coli [21]): 32 µM; MBC (Klebsiella pneumoniae [22]): 64 µM; MBC (Pseudomonas aeruginosa [23]): > 64 µM; MIC95 (Escherichia coli [24]): 8 µM; MIC95 (Salmonella typhimurium [25]): 16 µM; MIC95 (Escherichia coli [26]): 16 µM; MIC95 (Pseudomonas aeruginosa [27]): > 64 µM; MIC95 (Pseudomonas aeruginosa [28]): > 64 µM; MBC (Salmonella typhimurium [29]): 16 µM; MBC (Pseudomonas aeruginosa [30]): > 64 µM; MIC95 (Pseudomonas aeruginosa [31]): > 64 µM; MIC95 (Klebsiella pneumoniae [32]): 32 µM |
| H-LRPLLRPLLRPLLRPLLRPL-NH2 | 32 µM | 2 µM | 32 µM | 32 µM | 32 µM | 8 µM | 4 µM | 4 µM | 4 µM | 4 µM | 4 µM | 4 µM | 8 µM | 4 µM | 4 µM | 32 µM | 16 µM | 4 µM | 32 µM | 2 µM | MBC (Escherichia coli [21]): 8 µM; MBC (Klebsiella pneumoniae [22]): 8 µM; MBC (Pseudomonas aeruginosa [23]): 32 µM; MIC95 (Escherichia coli [24]): 2 µM; MIC95 (Salmonella typhimurium [25]): 4 µM; MIC95 (Escherichia coli [26]): 4 µM; MIC95 (Pseudomonas aeruginosa [27]): 16 µM; MIC95 (Pseudomonas aeruginosa [28]): 32 µM; MBC (Salmonella typhimurium [29]): 16 µM; MBC (Pseudomonas aeruginosa [30]): 16 µM; MIC95 (Pseudomonas aeruginosa [31]): 32 µM; MIC95 (Klebsiella pneumoniae [32]): 8 µM |
| H-LRPLLRPLLRPLLRPLLRPLLRPLLRPLLRPL-NH2 | 8 µM | 1 µM | 2 µM | 8 µM | 4 µM | 4 µM | 1 µM | 2 µM | 2 µM | 2 µM | 1 µM | 2 µM | 4 µM | 2 µM | 1 µM | 2 µM | 4 µM | 2 µM | 4 µM | 1 µM | MBC (Escherichia coli [21]): 2 µM; MBC (Klebsiella pneumoniae [22]): 4 µM; MBC (Pseudomonas aeruginosa [23]): 4 µM; MIC95 (Escherichia coli [24]): 1 µM; MIC95 (Salmonella typhimurium [25]): 2 µM; MIC95 (Escherichia coli [26]): 1 µM; MIC95 (Pseudomonas aeruginosa [27]): 4 µM; MIC95 (Pseudomonas aeruginosa [28]): 2 µM; MBC (Salmonella typhimurium [29]): 4 µM; MBC (Pseudomonas aeruginosa [30]): 4 µM; MIC95 (Pseudomonas aeruginosa [31]): 2 µM; MIC95 (Klebsiella pneumoniae [32]): 2 µM |
